Experimental data taken from ChEMBL document CHEMBL3217460, “Interactions of polysulfanes with components of red blood cells” (Medchemcomm, 2011).
The source made the active and inactive calls. No cut-off for these calls is given here.

Experiments:
Erythrocyte [1] = test: Hemolytic activity in human RBC assessed as phosphatidylserine exposure on outer leaflet of cell membrane at 50 uM after 20 mins by annexin V-FITC staining-based FACS analysis; assay type: functional
[2] = target: T1, Hemoglobin HbA (Homo sapiens) (UniProt P69905+P68871); test: Binding affinity to human hemoglobin by CD spectroscopic analysis
T1 sequence (P68871 2-147 partner limits assumed): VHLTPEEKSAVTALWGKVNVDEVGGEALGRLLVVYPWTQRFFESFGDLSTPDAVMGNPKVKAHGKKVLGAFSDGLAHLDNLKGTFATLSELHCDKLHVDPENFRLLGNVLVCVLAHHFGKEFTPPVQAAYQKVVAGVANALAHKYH
T1 sequence (P69905 2-142 limits assumed): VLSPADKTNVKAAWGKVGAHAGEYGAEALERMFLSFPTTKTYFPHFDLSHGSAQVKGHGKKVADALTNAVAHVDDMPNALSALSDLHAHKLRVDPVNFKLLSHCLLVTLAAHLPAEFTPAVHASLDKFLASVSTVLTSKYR

[3] = target: T1, Hemoglobin HbA (Homo sapiens); test: Binding affinity to human hemoglobin at 100 to 300 uM by UV-Vis spectrophotometric analysis
Erythrocyte [4] = test: Hemolytic activity in human RBC assessed as oxidation of hemoglobin to methemoglobin after 30 mins by UV-Vis spectrophotometric analysis; assay type: functional, cell-based

Row | Compound | Activity (Erythrocyte [1]) | Activity [2] | Activity [3] | Activity (Erythrocyte [4]) | logP at 1000 µM (physchem)
1 | C=CCS | Active | – | – | – | –
2 | C=CCSCC=C | Active | Active | Active | – | –
3 | C=CCSSSCC=C | Active | Active | Active | Dose-dependent effect | –
4 | C=CCSSSSCC=C | Active | Active | Active | Dose-dependent effect | –
5 | C=CCCCCCCC=C | – | – | – | – | 4.71
6 | C=CCSSCC=C | Active | Active | Active | – | 2.72
